The target of data set [1] is baculovirus-expressed ALK (Homo sapiens, UniProt Q9UM73). Put plainly: ALK kinase inhibition, TRF/ELISA. The format is biochemical. The settings on record: read-out: ALK Potency. Summed up:
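Plates were coated with GST-PLC-γ substrate (10 μg/mL) and the reaction was started with 30 ng/mL ALK, running 15 min at 37° C. Phosphotyrosine was detected by time-resolved fluorescence with Eu-labeled PT66 antibody. IC50s came from variable-slope sigmoidal fits of percent inhibition versus log concentration.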
(In general: In an ELISA, binding on a coated surface is turned into a signal by an enzyme label.)

Data set [2] deals with baculovirus-expressed JAK2 kinase (Homo sapiens, UniProt O60674). In words: biochemical. Conditions: 0.2 μM ATP; read-out: JAK2 Potency. The essentials:
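Time-resolved fluorescence kinase assay using 15 ng/mL baculovirus-expressed JAK2 on Neutravidin-captured biotinylated 15-mer peptide substrate, reaction 20 min at room temperature. IC50 from percent inhibition versus log concentration, sigmoidal variable-slope fit.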

Chain of baculovirus-expressed JAK2 kinase (O60674 whole entry): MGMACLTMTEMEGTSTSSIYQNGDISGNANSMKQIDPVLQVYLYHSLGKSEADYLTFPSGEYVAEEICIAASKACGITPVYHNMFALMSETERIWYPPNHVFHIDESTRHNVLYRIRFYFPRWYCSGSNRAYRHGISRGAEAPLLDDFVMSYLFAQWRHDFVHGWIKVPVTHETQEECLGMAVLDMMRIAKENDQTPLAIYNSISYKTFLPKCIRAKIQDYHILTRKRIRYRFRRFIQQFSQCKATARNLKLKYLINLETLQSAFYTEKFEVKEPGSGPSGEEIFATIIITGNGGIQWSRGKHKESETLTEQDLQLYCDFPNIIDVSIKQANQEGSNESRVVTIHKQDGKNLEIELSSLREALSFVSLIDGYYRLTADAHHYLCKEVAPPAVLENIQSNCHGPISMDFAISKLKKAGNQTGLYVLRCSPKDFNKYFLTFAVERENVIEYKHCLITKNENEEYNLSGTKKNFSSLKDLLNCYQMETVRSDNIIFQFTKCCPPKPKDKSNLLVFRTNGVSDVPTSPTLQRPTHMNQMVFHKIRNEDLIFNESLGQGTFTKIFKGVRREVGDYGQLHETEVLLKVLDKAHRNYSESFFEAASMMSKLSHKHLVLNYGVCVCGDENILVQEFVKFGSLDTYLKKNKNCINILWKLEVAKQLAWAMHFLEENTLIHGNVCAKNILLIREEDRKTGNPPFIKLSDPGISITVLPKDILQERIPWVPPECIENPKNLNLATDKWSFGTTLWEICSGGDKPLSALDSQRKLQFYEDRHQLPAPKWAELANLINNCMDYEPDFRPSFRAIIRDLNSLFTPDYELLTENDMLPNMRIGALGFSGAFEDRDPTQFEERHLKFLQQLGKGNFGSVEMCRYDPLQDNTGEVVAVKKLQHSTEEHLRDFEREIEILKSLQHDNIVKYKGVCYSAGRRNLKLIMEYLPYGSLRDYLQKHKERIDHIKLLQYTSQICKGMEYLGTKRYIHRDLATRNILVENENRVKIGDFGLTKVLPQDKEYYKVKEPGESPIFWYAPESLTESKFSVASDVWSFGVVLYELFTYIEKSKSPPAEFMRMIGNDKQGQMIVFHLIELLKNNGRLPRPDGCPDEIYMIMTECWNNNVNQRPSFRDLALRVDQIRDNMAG
Chain of baculovirus-expressed ALK (Q9UM73 19-1620): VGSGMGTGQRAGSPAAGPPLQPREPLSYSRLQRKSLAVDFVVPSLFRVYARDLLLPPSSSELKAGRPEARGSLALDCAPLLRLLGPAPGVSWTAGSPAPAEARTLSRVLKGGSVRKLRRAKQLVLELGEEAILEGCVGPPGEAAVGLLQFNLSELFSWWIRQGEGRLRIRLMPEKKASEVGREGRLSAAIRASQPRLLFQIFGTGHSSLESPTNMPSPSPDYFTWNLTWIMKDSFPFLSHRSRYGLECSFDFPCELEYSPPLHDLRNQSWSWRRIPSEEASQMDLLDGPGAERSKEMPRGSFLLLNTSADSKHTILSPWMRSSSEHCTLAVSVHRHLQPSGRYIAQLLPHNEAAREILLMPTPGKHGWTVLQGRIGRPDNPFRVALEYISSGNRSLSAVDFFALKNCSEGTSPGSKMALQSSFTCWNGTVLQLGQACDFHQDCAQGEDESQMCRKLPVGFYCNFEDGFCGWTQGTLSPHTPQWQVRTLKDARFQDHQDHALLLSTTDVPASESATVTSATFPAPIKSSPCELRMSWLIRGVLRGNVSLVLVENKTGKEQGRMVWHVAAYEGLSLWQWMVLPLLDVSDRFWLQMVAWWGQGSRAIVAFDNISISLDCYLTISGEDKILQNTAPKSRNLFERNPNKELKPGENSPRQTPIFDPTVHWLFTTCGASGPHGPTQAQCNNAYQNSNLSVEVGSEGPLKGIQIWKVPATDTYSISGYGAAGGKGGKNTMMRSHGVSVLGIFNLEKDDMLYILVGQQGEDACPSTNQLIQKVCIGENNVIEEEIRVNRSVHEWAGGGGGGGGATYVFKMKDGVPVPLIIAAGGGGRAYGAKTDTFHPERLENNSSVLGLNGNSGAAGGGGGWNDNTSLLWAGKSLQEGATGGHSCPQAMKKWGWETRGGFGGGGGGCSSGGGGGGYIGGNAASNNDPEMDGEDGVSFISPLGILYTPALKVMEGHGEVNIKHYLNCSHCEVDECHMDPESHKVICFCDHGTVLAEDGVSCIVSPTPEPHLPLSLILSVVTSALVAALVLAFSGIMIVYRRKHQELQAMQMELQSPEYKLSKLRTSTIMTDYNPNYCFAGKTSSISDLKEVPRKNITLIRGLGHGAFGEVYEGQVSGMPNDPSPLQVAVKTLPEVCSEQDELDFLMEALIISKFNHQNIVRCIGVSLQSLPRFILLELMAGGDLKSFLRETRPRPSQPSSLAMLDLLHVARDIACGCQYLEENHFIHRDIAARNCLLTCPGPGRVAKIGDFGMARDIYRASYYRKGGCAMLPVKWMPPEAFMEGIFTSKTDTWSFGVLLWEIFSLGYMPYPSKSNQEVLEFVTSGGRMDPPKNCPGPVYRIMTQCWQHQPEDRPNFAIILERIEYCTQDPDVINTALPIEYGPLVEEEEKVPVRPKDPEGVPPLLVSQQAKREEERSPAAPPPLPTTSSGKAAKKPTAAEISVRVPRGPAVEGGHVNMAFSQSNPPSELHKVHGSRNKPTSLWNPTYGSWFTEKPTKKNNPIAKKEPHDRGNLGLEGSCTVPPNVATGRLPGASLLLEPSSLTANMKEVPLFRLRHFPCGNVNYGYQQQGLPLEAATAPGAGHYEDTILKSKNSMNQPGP

As to `CC(O)CN1CCN(C(=O)c2ccc(-c3nc4c(N[C@H]5[C@@H](C(N)=O)[C@@H]6C=C[C@H]5C6)c(Cl)cnc4[nH]3)cc2)CC1` (stereo partly drawn) [Compound CCXXIV, (1S,2S,3R,4R)-3-(6-chloro-2-(4-(4-(2-hydroxypropyl)piperazine-1-carbonyl)phenyl)-3H-imidazo[4,5-b]pyridine-7-ylamino)pyridin[2.2.1]hept-5-ene-2-carboxamide], the melting point (usually the temperature, or range, at which the solid turns liquid) turned out to be 224 °C. For the same compound, the IC50 in data set [1] was below 100 nM. In addition, the IC50 in data set [2] is below 100 nM.

As to `NC(=O)[C@@H]1[C@H](Nc2c(Br)cnc3[nH]c(-c4cccnc4N4CCOCC4)nc23)[C@H]2C=C[C@@H]1C2` [Compound CII, (1S,2S,3R,4R)-3-[6-Bromo-2-(2-morpholin-4-yl-pyridin-3-yl)-3H-imidazo[4,5-b]pyridin-7-ylamino]-bicyclo[2.2.1]hept-5-ene-2-carboxylic acid amide], the melting point was 150 °C. Also, in data set [1], the IC50 lay in the range of 1000 to 10000 nM. For the same compound, the IC50 in data set [2] was 1000 to 10000 nM.

As to `COc1cc(CN2CCN(C[C@H](C)O)CC2)ccc1-c1nc2c(N[C@H]3[C@@H](C(N)=O)[C@@H]4C=C[C@H]3C4)c(Cl)cnc2[nH]1` [Compound XLIII, (1S,2S,3R,4R)-3-(6-Chloro-2-{4-[4-((S)-2-hydroxypropyl)-piperazin-1-ylmethyl]-2-methoxyphenyl}-3H-imidazo[4,5-b]pyridine-7-ylamino)-bicyclo[2.2.1]hept-5-ene-2-carboxylic acid amide], the melting point was in the range of 142 to 146 °C. Moreover, in data set [1], the IC50 was below 100 nM. For the same compound, the IC50 in data set [2] was below 100 nM.

`CN(C)c1cccc(-c2nc3c(N[C@H]4[C@@H](C(N)=O)[C@@H]5C=C[C@H]4C5)ccnc3[nH]2)c1` [Compound LXXXVII, (1S,2S,3R,4R)-3-[2-(3-Dimethylamino-phenyl)-3H-imidazo[4,5-b]pyridin-7-ylamino]-bicyclo[2.2.1]hept-5-ene-2-carboxylic acid amide] registered a melting point of 200 to 204 °C. Further, the IC50 in data set [1] is above 10000 nM. In addition, in data set [2], the IC50 lay within 1000 to 10000 nM.

Consider `Cn1cc(-c2nc3c(N[C@H]4[C@@H](C(N)=O)[C@@H]5C=C[C@H]4C5)c(Br)cnc3[nH]2)cn1` [Compound LXXXV, (1S,2S,3R,4R)-3-[6-Bromo-2-(1-methyl-1H-pyrazol-4-yl)-3H-imidazo[4,5-b]pyridin-7-ylamino]-bicyclo[2.2.1]hept-5-ene-2-carboxylic acid amide], for which the melting point was 255 to 258 °C. Besides, in data set [1], the IC50 is 100 to 1000 nM. Moreover, the IC50 in data set [2] is below 100 nM.

On to `CN1CCN(c2ccc(-c3nc4c(N[C@H]5[C@@H](C(N)=O)[C@@H]6C=C[C@H]5C6)ccnc4[nH]3)cc2)CC1` [Compound LXXXVIII, (1S,2S,3R,4R)-3-{2-[4-(4-Methyl-piperazin-1-yl)-phenyl]-3H-imidazo[4,5-b]pyridin-7-ylamino}-bicyclo[2.2.1]hept-5-ene-2-carboxylic acid amide], for which the melting point was in the range of 220 to 222 °C. The IC50 in data set [1] was in the range of 1000 to 10000 nM. The IC50 in data set [2] lay within 1000 to 10000 nM.

Take `COC[C@@H](O)CN1CCC(c2ccc(-c3nc4c(N[C@H]5[C@@H](C(N)=O)[C@@H]6C=C[C@H]5C6)c(Cl)cnc4[nH]3)c(OC)c2)CC1` [Compound CXIX, (1S,2S,3R,4R)-3-(6-Chloro-2-{4-[1-((S)-2-hydroxy-3-methoxy-propyl)-piperidin-4-yl]-2-methoxy-phenyl}-3H-imidazo[4,5-b]pyridin-7-ylamino)-bicyclo[2.2.1]hept-5-ene-2-carboxylic acid amide]: the melting point is 189 to 191 °C. In addition, the IC50 in data set [1] was below 100 nM. The IC50 in data set [2] was below 100 nM.

In turn, `CN(C)c1ccc(-c2nc3c(N[C@H]4[C@@H](C(N)=O)[C@@H]5C=C[C@H]4C5)c(Br)cnc3[nH]2)cc1` [Compound LXXVI, (1S,2S,3R,4R)-3-[6-Bromo-2-(4-dimethylamino-phenyl)-3H-imidazo[4,5-b]pyridin-7-ylamino]-bicyclo[2.2.1]hept-5-ene-2-carboxylic acid amide] displayed a melting point of 264 to 265 °C. Besides, the IC50 in data set [1] was below 100 nM. Also, in data set [2], the IC50 was below 100 nM.

Take `NC(=O)[C@@H]1[C@H](Nc2c(Cl)cnc3[nH]c(-c4ccc(C(=O)NCC(=O)O)cc4)nc23)[C@H]2C=C[C@@H]1C2` [Compound CCXXVIII, 2-(4-(7-((1R,2R,3S,4S)-3-carbamoylbicyclo[2.2.1]hept-5-en-2-ylamino)-6-chloro-3H-imidazo[4,5-b]pyridine-2-yl)benzamido)acetic acid]: the melting point was 291 °C. Further, the IC50 in data set [1] is 100 to 1000 nM. In data set [2], the IC50 was below 100 nM.

For the compound `NC(=O)[C@@H]1[C@H](Nc2c(Br)cnc3[nH]c(-c4cccnc4N4CCCC4)nc23)[C@H]2C=C[C@@H]1C2` [Compound CV, (1S,2S,3R,4R)-3-[6-Bromo-2-(2-pyrrolidin-1-yl-pyridin-3-yl)-3H-imidazo[4,5-b]pyridin-7-ylamino]-bicyclo[2.2.1]hept-5-ene-2-carboxylic acid amide], the melting point was found to be 190 °C. The IC50 in data set [1] was in the range of 1000 to 10000 nM. Further, the IC50 in data set [2] was 1000 to 10000 nM.

On to `NC(=O)[C@@H]1[C@H](Nc2c(Br)cnc3[nH]c(-c4cccc(N5CCOCC5)c4)nc23)[C@H]2C=C[C@@H]1C2` [Compound LXXXIII, (1S,2S,3R,4R)-3-[6-Bromo-2-(3-morpholin-4-yl-phenyl)-3H-imidazo[4,5-b]pyridin-7-ylamino]-bicyclo[2.2.1]hept-5-ene-2-carboxylic acid amide], for which the melting point fell in the range of 232 to 234 °C. Further, in data set [1], the IC50 is below 100 nM. Also, in data set [2], the IC50 was below 100 nM.

`NC(=O)[C@@H]1[C@H](Nc2c(Br)cnc3[nH]c(-c4cncnc4)nc23)[C@H]2C=C[C@@H]1C2` [Compound CVII, (1S,2S,3R,4R)-3-(6-Bromo-2-pyrimidin-5-yl-3H-imidazo[4,5-b]pyridin-7-ylamino)-bicyclo[2.2.1]hept-5-ene-2-carboxylic acid amide] displayed a melting point above 300 °C. Also, the IC50 in data set [1] is 100 to 1000 nM. Further, the IC50 in data set [2] was below 100 nM.

`COc1ccc(-c2nc3c(N[C@H]4[C@@H](C(N)=O)[C@@H]5C=C[C@H]4C5)c(Cl)cnc3[nH]2)c(C2CCNCC2)c1` [Compound XXX, (1S,2S,3R,4R)-3-[6-Chloro-2-(4-methoxy-2-piperidin-4-yl-phenyl)-3H-imidazo[4,5-b]pyridine-7-ylamino]-bicyclo[2.2.1]hept-5-ene-2-carboxylic acid amide]: the melting point was 199 to 200 °C. The IC50 in data set [1] is 1000 to 10000 nM. Further, the IC50 in data set [2] was in the range of 100 to 1000 nM.

For `CN1CCN(c2ccc(-c3nc4c(N[C@@H]5[C@H]6CC[C@H](C6)[C@@H]5C(N)=O)c(Br)cnc4[nH]3)cc2)CC1` [Compound CXIII, (1R,2S,3R,4S)-3-{6-Bromo-2-[4-(4-methyl-piperazin-1-yl)-phenyl]-3H-imidazo[4,5-b]pyridin-7-ylamino}-bicyclo[2.2.1]heptane-2-carboxylic acid amide], the melting point was in the range of 256 to 258 °C. For the same compound, the IC50 in data set [1] is below 100 nM. Further, in data set [2], the IC50 is below 100 nM.

The record behind these values is US9238656B2, “Imidazo[4,5-b]pyridine derivatives as ALK and JAK modulators for the treatment of proliferative disorders” (priority 2012, dated 2016).
